Data on 15 molecules can be found in ChEMBL document CHEMBL1148357, “Novel dicationic imidazo[1,2-a]pyridines and 5,6,7,8-tetrahydro-imidazo[1,2-a]pyridines as antiprotozoal agents” (J Med Chem, 2004).

Each structure is given as a SMILES string.

For one test, the system named is Plasmodium falciparum. Put plainly: In vitro inhibitory activity for Plasmodium falciparum. The class given is functional, organism-based.
The test system of test [1] is Mus musculus. Put plainly: Number of mice (out of 4) cured from Trypanosoma brucei rhodesiense infection which are parasite free for 60 days was determined at p.o. dose of 100 mg/kg. The class given is functional. The settings on record: route oral.
The subject of test [2] is Mus musculus. Kind of test: In vivo average survival days of mice infected by Trypanosoma brucei rhodesiense was determined for a period of 60 days at p.o. dose of 100 mg/kg. The settings on record: route oral. The class given is functional.
Test [3] has as its system Trypanosoma brucei rhodesiense. Put plainly: In vitro inhibitory activity against Trypanosoma brucei rhodesiense. The class given is functional, organism-based.
Test [4] deals with Mus musculus. Put plainly: Number of mice (out of 4) cured from Trypanosoma brucei rhodesiense infection which are parasite free for 60 days was determined at i.p. dose of 10 mg/kg. The class given is functional. The settings on record: route intraperitoneal.
The test system of test [5] is Mus musculus. Kind of test: In vivo average survival days of mice infected by Trypanosoma brucei rhodesiense was determined for a period of 60 days at i.p. dose of 10 mg/kg. The class given is functional. The settings on record: route intraperitoneal.
The next test has as its system Nucleic Acid. Put plainly: In vitro binding affinity towards Poly (dA-dT)2. The class given is nucleic-acid assay.
Test [6] deals with Mus musculus. Kind of test: In vivo average survival days of mice infected by Trypanosoma brucei rhodesiense was determined for a period of 60 days at p.o. dose of 50 mg/kg. The class given is functional. The settings on record: route oral.
Test [7] has as its system Mus musculus. Kind of test: Number of mice (out of 4) cured from Trypanosoma brucei rhodesiense infection which are parasite free for 60 days was determined at p.o. dose of 50 mg/kg. The class given is functional. The settings on record: route oral.
Test [8] deals with Mus musculus. Put plainly: Number of mice (out of 4) cured from Trypanosoma brucei rhodesiense infection which are parasite free for 60 days was determined at i.p. dose of 20 mg/kg. The class given is functional. The settings on record: route intraperitoneal.
For test [9], the system named is Mus musculus. Kind of test: In vivo average survival days of mice infected by Trypanosoma brucei rhodesiense was determined for a period of 60 days at i.p. dose of 20 mg/kg. The class given is functional. The settings on record: route intraperitoneal.
Test [10] concerns Mus musculus. Kind of test: In vivo average survival days of mice infected by Trypanosoma brucei rhodesiense was determined for a period of 60 days at i.p. dose of 5 mg/kg. The class given is functional. The settings on record: route intraperitoneal.
Test [11] deals with Mus musculus. Kind of test: Number of mice (out of 4) cured from Trypanosoma brucei rhodesiense infection which are parasite free for 60 days was determined at i.p. dose of 5 mg/kg. The class given is functional. The settings on record: route intraperitoneal.
Test [12] deals with Mus musculus. Kind of test: Number of mice (out of 4) cured from Trypanosoma brucei rhodesiense infection which are parasite free for 60 days was determined at p.o. dose of 75 mg/kg. The class given is functional. The settings on record: route oral.
Test [13] concerns Mus musculus. Put plainly: In vivo average survival days of mice infected by Trypanosoma brucei rhodesiense was determined for a period of 60 days at p.o. dose of 75 mg/kg. The class given is functional. The settings on record: route oral.

For orientation: IC50 means the point on the concentration scale where inhibition reaches its midpoint. High values mean weaker potency, low ones greater potency.

Take `CONC(=N)c1ccc(-c2ccc(-c3cn4cc(C(=N)NOC)ccc4n3)o2)cc1`: the IC50 in the test on Plasmodium falciparum is 2800 nM; in test [3], 3000 nM. Further, the No. of cures with Mus musculus [1] is recorded as 2. This molecule also came in with a Survival in the test on Mus musculus [2] of over 39.5 days.

`N=C(N)c1ccc(-c2ccc(-c3cn4c(n3)CCC(C(=N)N)C4)cc2)cc1` (stereo not drawn): the IC50 in the test with Plasmodium falciparum worked out at 14 nM; in test [3], 116 nM. For the same molecule, the No. of cures in the test on Mus musculus [4] turned out to be 3. The molecule also displayed a Survival with Mus musculus [5] of over 51.5 days. Besides, in the test on Nucleic Acid, the ΔTm was 21.3.

On to `N=C(NO)c1ccc(-c2ccc(-c3cn4cc(/C(N)=N/O)ccc4n3)o2)cc1`, for which the Survival in the test with Mus musculus [6] was over 19.5 days. This molecule registered a No. of cures with Mus musculus [7] of 1. Also, the IC50 came out at 1600 nM with Plasmodium falciparum and 2200 nM in [3].

With `N=C(N)c1ccc(-c2ccc(-c3cn4cc(C(=N)N)ccc4n3)cc2)cc1`, the No. of cures in the test with Mus musculus [8] came to 4. The same molecule came in with a Survival in the test on Mus musculus [9] of over 60 days. Further, the IC50 in the test with Plasmodium falciparum was determined as 43 nM; in [3] it was 1 nM. The ΔTm with Nucleic Acid worked out at 24.2.

In the case of `N=C(N)c1ccc(-c2ccc(-c3cn4c(n3)CCC(C(=N)N)C4)o2)cc1` (stereo not drawn), the No. of cures in the test on Mus musculus [8] amounted to 4; in the test on Mus musculus [11], 2. Further, the Survival in the test with Mus musculus [9] is over 60 days; with Mus musculus [10], over 51 days. In addition, the IC50 was 1200 nM in the test with Plasmodium falciparum and 52 nM in [3]. Also, the ΔTm in the test on Nucleic Acid is 15.6.

For the molecule `N=C(N)c1ccc(-c2cccc(-c3cn4cc(C(=N)N)ccc4n3)c2)cc1`, the No. of cures in the test with Mus musculus [8] came out at 4. In the test on Mus musculus [9], this molecule yielded a Survival of over 60 days. Besides, the IC50 was 107 nM with Plasmodium falciparum and 22 nM in test [3]. In the test with Nucleic Acid, the ΔTm was over 27.

For `N=C(NO)c1ccc(-c2ccc(-c3cn4cc(/C(N)=N/O)ccc4n3)cc2)cc1`, in the test on Mus musculus [12], the No. of cures is given as 0. Besides, the midpoint of inhibition in the test on Plasmodium falciparum, the IC50, lay at 521 nM. This molecule also gave a Survival in the test on Mus musculus [13] of 28 days.

In the case of `CONC(=N)c1ccc(-c2ccc(-c3ccc(C(=N)NOC)cc3)o2)cc1` [PAFURAMIDINE], the IC50 with Plasmodium falciparum stood at 15.5 nM; in [3], 4.5 nM. This molecule had a No. of cures in the test on Mus musculus [1] of 4. The Survival with Mus musculus [2] is over 60 days. Moreover, the ΔTm in the test with Nucleic Acid came to 25.

In the test on Mus musculus [8], `N=C(N)c1ccc(-c2ccc(-c3ccc(C(=N)N)cc3)o2)cc1` [FURAMIDINE] returned a No. of cures of 0.

For the molecule `N=C(N)c1ccc(OCCCCCOc2ccc(C(=N)N)cc2)cc1` [PENTAMIDINE], the No. of cures in the test on Mus musculus [8] worked out at 0.

In the test with Mus musculus [8], `Cc1cc(C(=N)N)cn2cc(-c3cccc(-c4ccc(C(=N)N)cc4)c3)nc12` had a No. of cures of 3. Further, the Survival in the test on Mus musculus [9] was over 50 days. The IC50 is 86 nM with Plasmodium falciparum and 49 nM in [3]. Besides, the ΔTm in the test with Nucleic Acid was over 27.

`CONC(=N)c1ccc(-c2ccc(-c3cn4cc(C(=N)NOC)ccc4n3)cc2)cc1` gave a No. of cures in the test with Mus musculus [12] of 0. For the same molecule, the 50% inhibitory concentration (IC50) is 395 nM with Plasmodium falciparum and 5300 nM in test [3]. For the same molecule, in the test on Nucleic Acid, the ΔTm was 0.3. The Survival in the test on Mus musculus [13] is 20 days.

For the molecule `Cc1cc(C(=N)N)cn2cc(-c3ccc(-c4ccc(C(=N)N)cc4)o3)nc12`, the No. of cures with Mus musculus [8] stood at 4. In the test on Mus musculus [9], this molecule had a Survival of over 60 days. The IC50 in the test on Plasmodium falciparum was determined as 88 nM; in test [3] it was 6 nM. In the test on Nucleic Acid, the ΔTm was over 27.

Regarding `N=C(N)c1ccc(-c2cccc(-c3cn4c(n3)CCC(C(=N)N)C4)c2)cc1` (stereo not drawn), the IC50 with Plasmodium falciparum turned out to be 86 nM; in test [3], 226 nM. For the same molecule, in the test with Nucleic Acid, the ΔTm stood at 19.1.

As to `N=C(N)c1ccc(-c2ccc(-c3cn4cc(C(=N)N)ccc4n3)o2)cc1`, the No. of cures in the test on Mus musculus [8] stood at 4. For the same molecule, in the test on Mus musculus [9], the Survival was over 60 days. The IC50 in the test on Plasmodium falciparum was 14 nM; in test [3], 63 nM. The ΔTm in the test on Nucleic Acid turned out to be 26.2.
